Where “and” joins values, the source holds several entries; their conditions need not be identical. Equal values may be shown once. Blank lines part the entries; values can stand above or below the molecule they belong to.
Tested on: 422866-222-R5-J1-PDC complex spheroids viability
Test: Anticancer human tumor 422866-222-R5-J1-PDC patient-derived pancreatic adenocarcinoma cell line growth inhibition [RAS]
Conditions: for viability, T/C: stronger effect = lower value
Procedure, shortened: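 Agents were tested in combination matrices in half-log decrements from a top concentration at or near clinical Cmax (10 microM if undetermined). Targets were multi-cell spheroids of tumour lines plus HUVEC and MSC stromal cells.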

[1] = curve of first compound, second compound 0.0316 µM
[2] = curve of first compound, second compound 0.1 µM
[3] = curve of first compound, second compound 0.316 µM
[4] = curve of first compound, second compound 1 µM
[5] = curve of first compound, second compound 3.16 µM
[6] = curve of first compound, second compound 10 µM
[7] = second compound 0.0316 µM, first compound 0.00316 µM
[8] = second compound 0.0316 µM, first compound 0.01 µM
[9] = second compound 0.0316 µM, first compound 0.0316 µM
[10] = second compound 0.0316 µM, first compound 0.1 µM
[11] = second compound 0.0316 µM, first compound 0.316 µM
[12] = second compound 0.0316 µM, first compound 1 µM
[13] = second compound 0.1 µM, first compound 0.00316 µM
[14] = second compound 0.1 µM, first compound 0.01 µM
[15] = second compound 0.1 µM, first compound 0.0316 µM
[16] = second compound 0.1 µM, first compound 0.1 µM
[17] = second compound 0.1 µM, first compound 0.316 µM
[18] = second compound 0.1 µM, first compound 1 µM
[19] = second compound 0.316 µM, first compound 0.00316 µM
[20] = second compound 0.316 µM, first compound 0.01 µM
[21] = second compound 0.316 µM, first compound 0.0316 µM
[22] = second compound 0.316 µM, first compound 0.1 µM
[23] = second compound 0.316 µM, first compound 0.316 µM
[24] = second compound 0.316 µM, first compound 1 µM
[25] = second compound 1 µM, first compound 0.00316 µM
[26] = second compound 1 µM, first compound 0.01 µM
[27] = second compound 1 µM, first compound 0.0316 µM
[28] = second compound 1 µM, first compound 0.1 µM
[29] = second compound 1 µM, first compound 0.316 µM
[30] = second compound 1 µM, first compound 1 µM
[31] = second compound 3.16 µM, first compound 0.00316 µM
[32] = second compound 3.16 µM, first compound 0.01 µM
[33] = second compound 3.16 µM, first compound 0.0316 µM
[34] = second compound 3.16 µM, first compound 0.1 µM
[35] = second compound 3.16 µM, first compound 0.316 µM
[36] = second compound 3.16 µM, first compound 1 µM
[37] = second compound 10 µM, first compound 0.00316 µM
[38] = second compound 10 µM, first compound 0.01 µM
[39] = second compound 10 µM, first compound 0.0316 µM
[40] = second compound 10 µM, first compound 0.1 µM
[41] = second compound 10 µM, first compound 0.316 µM
[42] = second compound 10 µM, first compound 1 µM
[43] = second compound 0.0316 µM, first compound 3.16 µM
[44] = second compound 0.0316 µM, first compound 10 µM
[45] = second compound 0.1 µM, first compound 3.16 µM
[46] = second compound 0.1 µM, first compound 10 µM
[47] = second compound 0.316 µM, first compound 3.16 µM
[48] = second compound 0.316 µM, first compound 10 µM
[49] = second compound 1 µM, first compound 3.16 µM
[50] = second compound 1 µM, first compound 10 µM
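Also: spheroids exposed to compounds for 7 days.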
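For viability, T/C in this document: 100% = DMSO vehicle control viability.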

IC50 [1]: < 3.16 nM
IC50 [2]: < 3.16 nM
IC50 [3]: < 3.16 nM
IC50 [4]: < 3.16 nM
IC50 [5]: < 3.16 nM
IC50 [6]: < 3.16 nM
SMILES: C=CC(=O)N1CCN(c2nc(OCC3CCCN3C)nc3c(F)c(-c4nc(N)cc(C)c4C(F)(F)F)c(Cl)cc23)C(C)C1 (stereo not given) + C#Cc1c(F)ccc2cc(O)cc(-c3ncc4c(N5CC6CCC(C5)N6)nc(OCC56CCCN5CC(F)C6)nc4c3F)c12
viability, T/C [7]: 29.7%
viability, T/C [8]: 24%
viability, T/C [9]: 21.9%
viability, T/C [10]: 19.4%
viability, T/C [11]: 19%
viability, T/C [12]: 22%
viability, T/C [13]: 28.4%
viability, T/C [14]: 24.6%
viability, T/C [15]: 21.2%
viability, T/C [16]: 18.6%
viability, T/C [17]: 20.9%
viability, T/C [18]: 21.3%
viability, T/C [19]: 29.6%
viability, T/C [20]: 24.6%
viability, T/C [21]: 25.7%
viability, T/C [22]: 19.2%
viability, T/C [23]: 21%
viability, T/C [24]: 21%
viability, T/C [25]: 20.5%
viability, T/C [26]: 21.4%
viability, T/C [27]: 21.7%
viability, T/C [28]: 19.8%
viability, T/C [29]: 18.8%
viability, T/C [30]: 17.5%
viability, T/C [31]: 21.6%
viability, T/C [32]: 18.1%
viability, T/C [33]: 21%
viability, T/C [34]: 22.5%
viability, T/C [35]: 19%
viability, T/C [36]: 22.6%
viability, T/C [37]: 17.9%
viability, T/C [38]: 20.3%
viability, T/C [39]: 20.8%
viability, T/C [40]: 17.5%
viability, T/C [41]: 20.7%
viability, T/C [42]: 17.6%

IC50 [1]: 7570 nM
IC50 [2]: 8440 nM
IC50 [3]: > 10000 nM
IC50 [4]: < 31.6 nM
IC50 [5]: < 31.6 nM
IC50 [6]: < 31.6 nM
SMILES: CC1(O)CCCC1n1c(=O)c(C(F)F)cc2cnc(NC3CCN(S(C)(=O)=O)CC3)nc21 (stereo not given) + C#Cc1c(F)ccc2cc(O)cc(-c3ncc4c(N5CC6CCC(C5)N6)nc(OCC56CCCN5CC(F)C6)nc4c3F)c12
viability, T/C [9]: 73.3%
viability, T/C [10]: 79.7%
viability, T/C [11]: 87.4%
viability, T/C [12]: 75.5%
viability, T/C [43]: 69.4%
viability, T/C [44]: 43.5%
viability, T/C [15]: 85%
viability, T/C [16]: 69.9%
viability, T/C [17]: 72.5%
viability, T/C [18]: 78.8%
viability, T/C [45]: 73%
viability, T/C [46]: 46%
viability, T/C [21]: 67.3%
viability, T/C [22]: 67.5%
viability, T/C [23]: 64.5%
viability, T/C [24]: 62.5%
viability, T/C [47]: 72.6%
viability, T/C [48]: 41.6%
viability, T/C [27]: 55.4%
viability, T/C [28]: 43.7%
viability, T/C [29]: 42.2%
viability, T/C [30]: 60.8%
viability, T/C [49]: 70.4%
viability, T/C [50]: 43.3%
viability, T/C [33]: 29.6%
viability, T/C [34]: 27.6%
viability, T/C [35]: 31.6%
viability, T/C [36]: 31.9%
viability, T/C (second compound 3.16 µM, first compound 3.16 µM): 42.2%
viability, T/C (second compound 3.16 µM, first compound 10 µM): 32.3%
viability, T/C [39]: 21%
viability, T/C [40]: 21.5%
viability, T/C [41]: 25%
viability, T/C [42]: 29.3%
viability, T/C (second compound 10 µM, first compound 3.16 µM): 42.1%
viability, T/C (second compound 10 µM, first compound 10 µM): 36.5%

IC50 (curve of first compound, second compound 0.00316 µM): < 31.6 nM
IC50 (curve of first compound, second compound 0.01 µM): < 31.6 nM
IC50 [1]: < 31.6 nM
IC50 [2]: < 31.6 nM
IC50 [3]: < 31.6 nM
IC50 [4]: < 31.6 nM
SMILES: CC1(O)CCCC1n1c(=O)c(C(F)F)cc2cnc(NC3CCN(S(C)(=O)=O)CC3)nc21 (stereo not given) + C=CC(=O)N1CCN(c2nc(OCC3CCCN3C)nc3c(F)c(-c4nc(N)cc(C)c4C(F)(F)F)c(Cl)cc23)C(C)C1
viability, T/C (second compound 0.00316 µM, first compound 0.0316 µM): 32.6%
viability, T/C (second compound 0.00316 µM, first compound 0.1 µM): 25.6%
viability, T/C (second compound 0.00316 µM, first compound 0.316 µM): 26%
viability, T/C (second compound 0.00316 µM, first compound 1 µM): 31.4%
viability, T/C (second compound 0.00316 µM, first compound 3.16 µM): 33.3%
viability, T/C (second compound 0.00316 µM, first compound 10 µM): 33.1%
viability, T/C (second compound 0.01 µM, first compound 0.0316 µM): 27.6%
viability, T/C (second compound 0.01 µM, first compound 0.1 µM): 25.8%
viability, T/C (second compound 0.01 µM, first compound 0.316 µM): 28.1%
viability, T/C (second compound 0.01 µM, first compound 1 µM): 25.4%
viability, T/C (second compound 0.01 µM, first compound 3.16 µM): 30.3%
viability, T/C (second compound 0.01 µM, first compound 10 µM): 33.9%
viability, T/C [9]: 33.6%
viability, T/C [10]: 20.7%
viability, T/C [11]: 22.5%
viability, T/C [12]: 21.6%
viability, T/C [43]: 26.5%
viability, T/C [44]: 24.9%
viability, T/C [15]: 18.4%
viability, T/C [16]: 19.9%
viability, T/C [17]: 22.1%
viability, T/C [18]: 23%
viability, T/C [45]: 28%
viability, T/C [46]: 29.3%
viability, T/C [21]: 21.9%
viability, T/C [22]: 20.4%
viability, T/C [23]: 23.6%
viability, T/C [24]: 23.8%
viability, T/C [47]: 29.7%
viability, T/C [48]: 35.3%
viability, T/C [27]: 20.6%
viability, T/C [28]: 20.3%
viability, T/C [29]: 23.9%
viability, T/C [30]: 23.4%
viability, T/C [49]: 30.6%
viability, T/C [50]: 40.1%

IC50 (curve of compound): 290 nM and < 31.6 nM
SMILES: NC1c2ccccc2OC12CCN(c1cnc3c(N4CCCc5ncccc54)n[nH]c3n1)CC2 (stereo not given)
viability, T/C (compound 0.0316 µM): 51.6% [middle of 4 runs]
viability, T/C (compound 0.1 µM): 45.3% [middle of 4 runs]
viability, T/C (compound 0.316 µM): 40.2% [middle of 4 runs]
viability, T/C (compound 1 µM): 40% [middle of 4 runs]
viability, T/C (compound 3.16 µM): 36.7% [middle of 4 runs]
viability, T/C (compound 10 µM): 33.8% [middle of 4 runs]

IC50 [1]: > 100 nM
IC50 [2]: > 100 nM
IC50 [3]: > 100 nM
IC50 [4]: < 0.316 nM
IC50 [5]: < 0.316 nM
IC50 [6]: < 0.316 nM
SMILES: CC(C)n1nc(-c2ccc3oc(N)nc3c2)c2c(N)ncnc21 + C#Cc1c(F)ccc2cc(O)cc(-c3ncc4c(N5CC6CCC(C5)N6)nc(OCC56CCCN5CC(F)C6)nc4c3F)c12
viability, T/C (second compound 0.0316 µM, first compound 0.000316 µM): 90.6%
viability, T/C (second compound 0.0316 µM, first compound 0.001 µM): 104%
viability, T/C [7]: 73.3%
viability, T/C [8]: 54.9%
viability, T/C [9]: 77.6%
viability, T/C [10]: 68.4%
viability, T/C (second compound 0.1 µM, first compound 0.000316 µM): 62.5%
viability, T/C (second compound 0.1 µM, first compound 0.001 µM): 75.1%
viability, T/C [13]: 65.4%
viability, T/C [14]: 54.6%
viability, T/C [15]: 80%
viability, T/C [16]: 56.8%
viability, T/C (second compound 0.316 µM, first compound 0.000316 µM): 66.4%
viability, T/C (second compound 0.316 µM, first compound 0.001 µM): 62.1%
viability, T/C [19]: 60%
viability, T/C [20]: 49.7%
viability, T/C [21]: 58.6%
viability, T/C [22]: 61.7%
viability, T/C (second compound 1 µM, first compound 0.000316 µM): 42.5%
viability, T/C (second compound 1 µM, first compound 0.001 µM): 37.9%
viability, T/C [25]: 28.2%
viability, T/C [26]: 26.7%
viability, T/C [27]: 44%
viability, T/C [28]: 48.5%
viability, T/C (second compound 3.16 µM, first compound 0.000316 µM): 31.5%
viability, T/C (second compound 3.16 µM, first compound 0.001 µM): 26%
viability, T/C [31]: 25.8%
viability, T/C [32]: 19.8%
viability, T/C [33]: 20.9%
viability, T/C [34]: 19.3%
viability, T/C (second compound 10 µM, first compound 0.000316 µM): 18.8%
viability, T/C (second compound 10 µM, first compound 0.001 µM): 21.7%
viability, T/C [37]: 17.4%
viability, T/C [38]: 15.2%
viability, T/C [39]: 18.1%
viability, T/C [40]: 15.1%

Source: PubChem BioAssay AID2060901 (Molecular Pharmacology Branch, DTP, NCI, 2025)
